Test results from patent US20240391931A1 (Bristol-Myers Squibb Company, priority 2021, published 2024).

Key:
BT474 cells = assay: Cellular proliferation in BT474 cells (CellTiter Glo); assay type: cell-based, human; settings: 120 h, redosed after 72 h
Description: (§1) In addition to the engineered cell lines, the following cell lines were used: BT474 (human breast carcinoma), N87 (human gastric carcinoma), NCI-H1781 (human lung adenocarcinoma), and A431 (human epidermoid carcinoma); all cell lines were obtained from the American Type Culture Collection (ATCC, Manassas, VA). NCI-H1781 were grown in complete RPMI 1640 (Life Technologies, Carlsbad, CA) supplemented with 15% fetal bovine serum (FBS, Life Technologies, Carlsbad, CA) and 1% Penicillin-Streptomycin (P/S, Life Technologies, Carlsbad, CA). N87 cells were grown in complete RPMI 1640 supplemented with 10% FBS and 1% P/S. BT474 and A431 cells were grown in DMEM (Life Technologies, Carlsbad, CA) supplemented with 10% FBS and 1% P/S. All cells were maintained and propagated in a humidified 5% CO2 incubator at 37° C.
(§2) Cell proliferation in adherent cells was investigated in two HER2 amplified cell lines (BT474, N87), and a HER2VC expressing cell line (NCI-H1781). BT474, NCI-H1781, and N87 were plated in their appropriate growth media supplemented with either 10% FBS (BT474, N87) or 15% FBS (NCI-H1781) and 1% P/S in 96-well white clear-bottom tissue culture plates (Costar, Sigma-Aldrich). The starting cell densities were 3500, 5500, and 5000 cells for BT474, NCI-H1781, and N87 cells, respectively. An 8-point standard curve with varying cell densities (starting at 50000 cells and serially diluting down 2-fold) was prepared for each cell line and read 6 h after plating. Cells were allowed to attach overnight prior to compound treatment. Compound solutions were prepared by serially diluting test compounds in DMSO (Sigma-Aldrich), then diluting 500× in their corresponding serum free media. Cells were treated by adding a 1:1 volume of test compound to a final concentration of […], 0.004, 0.0014, or 0.0005 μM, in 0.1% DMSO and 5% FBS (for BT474 and N87) or 7.5% FBS (NCI-H1781). In BT474 and NCI-H1781, cell media was replaced and cells were redosed with fresh test compound solutions after 72 h. Viability was determined by CellTiter Glo (Promega, Madison, WI) after 72 h for N87 cells, and after 120 h for BT474 and […] cells. The results were converted to cell numbers using a standard curve; growth inhibition (GI50 values) were determined by Graph Pad Prism. […] The results are provided in Table 4, under columns titled “BT474-GI50”, “N87-GI50”, and “NCI-H1781-GI50”.

N87 cells = assay: Cellular proliferation in N87 cells (CellTiter Glo); assay type: cell-based, human; settings: 72 h
Description: as §1, §2

HER2VC (G776delinsVC) = target: T1, HER2VC (G776delinsVC) (Homo sapiens, UniProt P04626, G776C/INS775V); assay: HER2 signaling (pHER2) in NCI-H1781 cells; assay type: cell-based; settings: 1.5 hr compound, 1% FBS
T1 construct: NCI-H1781 cells which endogenously expresses a HER2 mutant protein; endogenous in cells; host or cells: NCI-H1781
T1 sequence (P04626 with tags, fused parts or gaps INS775V/G776C): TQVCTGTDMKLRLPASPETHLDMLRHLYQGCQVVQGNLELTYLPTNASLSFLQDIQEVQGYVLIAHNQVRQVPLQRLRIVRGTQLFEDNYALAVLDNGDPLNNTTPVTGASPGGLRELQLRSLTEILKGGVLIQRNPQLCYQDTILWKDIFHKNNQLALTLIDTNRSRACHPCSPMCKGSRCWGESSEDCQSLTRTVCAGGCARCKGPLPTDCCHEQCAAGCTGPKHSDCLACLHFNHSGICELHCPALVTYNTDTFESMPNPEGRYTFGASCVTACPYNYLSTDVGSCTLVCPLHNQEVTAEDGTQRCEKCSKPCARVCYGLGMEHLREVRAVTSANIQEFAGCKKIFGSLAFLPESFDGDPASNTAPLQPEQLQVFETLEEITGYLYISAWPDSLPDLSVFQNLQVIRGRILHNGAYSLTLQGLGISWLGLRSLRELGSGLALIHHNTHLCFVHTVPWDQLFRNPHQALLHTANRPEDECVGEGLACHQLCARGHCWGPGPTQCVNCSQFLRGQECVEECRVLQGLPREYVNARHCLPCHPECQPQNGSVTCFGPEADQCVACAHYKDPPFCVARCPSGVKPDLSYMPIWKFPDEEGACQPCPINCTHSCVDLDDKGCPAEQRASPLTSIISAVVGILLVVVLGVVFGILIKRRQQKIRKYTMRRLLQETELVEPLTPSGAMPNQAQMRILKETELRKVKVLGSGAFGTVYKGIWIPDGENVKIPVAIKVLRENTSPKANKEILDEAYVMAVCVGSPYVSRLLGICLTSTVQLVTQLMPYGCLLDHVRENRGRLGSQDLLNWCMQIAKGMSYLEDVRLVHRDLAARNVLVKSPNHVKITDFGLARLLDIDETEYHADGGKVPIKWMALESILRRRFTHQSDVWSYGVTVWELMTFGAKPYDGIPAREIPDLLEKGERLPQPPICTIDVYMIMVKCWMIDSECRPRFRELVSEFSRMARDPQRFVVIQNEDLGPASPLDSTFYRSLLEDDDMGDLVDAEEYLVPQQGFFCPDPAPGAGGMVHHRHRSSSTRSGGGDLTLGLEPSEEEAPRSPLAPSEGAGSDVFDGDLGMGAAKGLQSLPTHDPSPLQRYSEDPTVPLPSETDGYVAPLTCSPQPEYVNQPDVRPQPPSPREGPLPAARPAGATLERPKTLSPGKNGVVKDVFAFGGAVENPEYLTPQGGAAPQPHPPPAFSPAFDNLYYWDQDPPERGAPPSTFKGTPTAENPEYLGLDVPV
Description: as §1
HER2 signaling was assessed in BT474 and N87 cell lines which endogenously overexpress the HER2 wildtype (WT) protein, in NCI-H1781 cells which endogenously expresses a HER2 mutant protein containing a VC insertion in the kinase domain (HER2VC or G776delinsVC), and in engineered cell lines transduced to express the Her2 mutant protein containing the YVMA insertion (Hek293-HER2YVMA and BEAS2B-HER2YVMA).
BT474, N87, and NCI-H1781 were plated in 96-well tissue-culture treated plates (Corning Costar, Sigma-Aldrich) in full media and incubated overnight. Hek293-HER2YVMA and BEAS2B-HER2YVMA cells were plated in 96-well poly-D-lysine treated plates (BD Bioscience, San Jose, CA). For treatment with test compounds, the media was replaced with corresponding low serum media (1% FBS) containing test compound at 1.1, 0.37, 0.12, 0.041, 0.014, 0.005, 0.0014, 0.0005 μM or DMSO control (0.1%). Cells were incubated with compound for 1.5 hr at 37° C. After compound treatment, the media was removed and cells were lysed for 30 min on ice in complete MSD lysis buffer (prepared using MSD base lysis buffer (Meso-Scale Discovery) supplemented with cOmplete, EDTA-free Protease inhibitor cocktail (Roche), Phosphatase Inhibitor Cocktails 2 and 3 (Sigma-Aldrich), and 1 mM PMSF (Sigma-Aldrich)). Lysates were stored at −70° C. until further analysis.
HER2 signaling was evaluated using phospho (Tyr1248)/total ErbB2 whole cell lysate MSD plates (Meso-Scale Discovery, Gaithersburg, MD). The phospho HER2 signal was normalized to total HER2 for each sample; results are reported as % DMSO control. The normalized data was fitted using a sigmoidal curve analysis program (Graph Pad Prism version 6) with variable Hill slope to determine EC50 values.
The HER2 signaling results are provided in Table 4, under columns titled “BT474-pHER2 EC50”, “N87-pHER2 EC50”, and “NCI-H1781-pHER2 EC50”. Hek293-HER2YVMA ins fall under the heading “HEKYVMA-pHER2 EC50”, Ba/F3 HER2YVMA fall under the heading “Ba/F3 YVMA-pHER2 EC50” and BEAS2B-HER2YVMA fall under the heading “BEAS2B YVMA-pHER2 EC50”.

NCI-H1781 cells = assay: Cellular proliferation in NCI-H1781 cells (CellTiter Glo); assay type: cell-based, human; settings: 120 h, redosed after 72 h
Description: as §1, §2

[1] = Homo sapiens, BT-474, BT474 cells
[2] = Homo sapiens, NCI-H1781, NCI-H1781 cells

Row | SMILES | GI50 (BT474 cells; [1]) [nM] | EC50 (HER2VC (G776delinsVC)) [nM] | GI50 (NCI-H1781 cells; [2]) [nM] | GI50 (BT474 cells; BT474 cells) [nM] | GI50 (NCI-H1781 cells; NCI-H1781 cells) [nM] | GI50 (N87 cells; Homo sapiens) [nM] | GI50 (N87 cells) [nM] | GI50 (NCI-H1781 cells; Homo sapiens, NCI-H1781 cells) [nM]
1 | COc1ccc(Oc2ccc(Nc3ncnc4sc5c(c34)C(C)CN(C(=O)C=CCN(C)C)C5)cc2C)cn1 (single isomer, unassigned) [Compound 159] | < 100 | 100 to 350 | 100 to 350 |  |  | < 100 |  | 
2 | C=CC(=O)N1CCc2c(sc3ncnc(Nc4ccc(Oc5cccnc5)c(Cl)c4)c23)C1 [Compound 6, 1-(4-((3-chloro-4-(pyridin-3-yloxy)phenyl)amino)-5,8-dihydropyrido[4′,3′:4,5]thieno[2,3-d]pyrimidin-7(6H)-yl)prop-2-en-1-one] |  | < 100 |  |  |  |  |  | 
3 | COc1cc(Nc2ncnc3sc4c(c23)CCN(C(=O)/C=C/CN(C)C)C4)ccc1Oc1ccccc1 [Compound 7, (E)-4-(dimethylamino)-1-(4-((3-methoxy-4-phenoxyphenyl)amino)-5,8-dihydropyrido[4′,3′:4,5]thieno[2,3-d]pyrimidin-7(6H)-yl)but-2-en-1-one] |  | < 100 |  |  |  |  |  | 
4 | Cc1ccc(Oc2ccc(Nc3ncnc4sc5c(c34)CCN(C(=O)/C=C/CN(C)C)C5)cc2C)cn1 [Compound 8, (E)-4-(Dimethylamino)-1-(4-((3-methyl-4-((6-methylpyridin-3-yl)oxy)phenyl)amino)-5,6-dihydropyrido[4′,3′:4,5]thieno[2,3-d]pyrimidin-7(8H)-yl)but-2-en-1-one] | < 100 | < 100 |  |  |  | < 100 |  | < 100
5 | Cc1ccc(Oc2ccc(Nc3ncnc4sc5c(c34)CCN(C(=O)/C=C/CN3CCOCC3)C5)cc2C)cn1 [Compound 17, (E)-1-(4-((3-Methyl-4-((6-methylpyridin-3-yl)oxy)phenyl)amino)-5,6-dihydropyrido[4′,3′:4,5]thieno[2,3-d]pyrimidin-7(8H)-yl)-4-morpholinobut-2-en-1-one] | < 100 | < 100 | < 100 |  |  | < 100 |  | 
6 | Cc1cc(Nc2ncnc3sc4c(c23)CCN(C(=O)/C=C/CN(C)C)C4)ccc1Oc1ccn2ccnc2c1 [Compound 126, (E)-4-(dimethylamino)-1-(4-((4-(imidazo[1,2-a]pyridin-7-yloxy)-3-methylphenyl)amino)-5,8-dihydropyrido[4′,3′:4,5]thieno[2,3-d]pyrimidin-7(6H)-yl)but-2-en-1-one] | < 100 |  |  |  |  | < 100 |  | < 100
7 | Cc1nc2cc(Oc3ccc(Nc4ncnc5sc6c(c45)CCN(C(=O)/C=C/CN(C)C)C6)cc3C)ccn2n1 [Compound 127, (E)-4-(dimethylamino)-1-(4-((3-methyl-4-((2-methyl-[1,2,4]triazolo[1,5-a]pyridin-7-yl)oxy)phenyl)amino)-5,6-dihydropyrido[4′,3′:4,5]thieno[2,3-d]pyrimidin-7(8H)-yl)but-2-en-1-one] | < 100 |  |  |  |  | < 100 |  | 100 to 350
8 | Cc1cc(Nc2ncnc3sc4c(c23)CN(C(=O)/C=C/CN(C)C)C4)ccc1Oc1ccn2ncnc2c1 [Compound 130, (E)-1-(4-((4-([1,2,4]Triazolo[1,5-a]pyridin-7-yloxy)-3-methylphenyl)amino)-5H-pyrrolo[3′,4′:4,5]thieno[2,3-d]pyrimidin-6(7H)-yl)-4-(dimethylamino)but-2-en-1-one] | < 100 |  | < 100 |  |  | < 100 |  | 

Further lines, with some results ahead:

Row | GI50 (BT474 cells; [1]) [nM] | EC50 (HER2VC (G776delinsVC)) [nM] | GI50 (NCI-H1781 cells; [2]) [nM] | GI50 (BT474 cells; BT474 cells) [nM] | GI50 (NCI-H1781 cells; NCI-H1781 cells) [nM] | SMILES | GI50 (N87 cells; Homo sapiens) [nM] | GI50 (N87 cells) [nM] | GI50 (NCI-H1781 cells; Homo sapiens, NCI-H1781 cells) [nM]
9 | < 100 | < 100 | < 100 |  |  | Cc1ccc(Oc2ccc(Nc3ncnc4sc5c(c34)C(C)N(C(=O)C=CCN(C)C)C5)cc2C)cn1 (single isomer, unassigned) [Compound 147] | < 100 |  | 
10 |  | < 100 |  | < 100 | < 100 | COc1ccc(Oc2ccc(Nc3ncnc4sc5c(c34)C(C)CN(C(=O)C=CCN(C)C)C5)cc2C)cn1 (single isomer, unassigned) [Compound 160] |  | < 100 | 
11 | < 100 | < 100 |  |  | < 100 | Cc1ccc(Oc2ccc(Nc3ncnc4sc5c(c34)CN(C(=O)C=CCN(C)C)C5C)cc2C)cn1 (single isomer, unassigned) [Compound 169] | < 100 |  | 
12 |  | 100 to 350 |  | 100 to 350 | 350 to 1000 | Cc1ccc(Oc2ccc(Nc3ncnc4sc5c(c34)CN(C(=O)C=CCN(C)C)C5C)cc2C)cn1 (single isomer, unassigned) [Compound 170] |  | 100 to 350 | 
13 |  | < 100 |  |  |  | Cc1ccc(Oc2ccc(Nc3ncnc4sc5c(c34)C(C)CN(C(=O)C=CCN3CCOCC3)C5)cc2C)cn1 (single isomer, unassigned) [Compound 177] |  |  | 
14 | < 100 |  | < 100 |  |  | Cc1ccc(Oc2ccc(Nc3ncnc4sc5c(c34)CN(C(=O)/C=C/CN(C)C)CC5)cc2C)cn1 [Compound 108, (E)-4-(Dimethylamino)-1-(4-((3-methyl-4-((6-methylpyridin-3-yl)oxy)phenyl)amino)-7,8-dihydropyrido[3′,4′:4,5]thieno[2,3-d]pyrimidin-6(5H)-yl)but-2-en-1-one] | < 100 |  | 
15 | < 100 |  | < 100 |  |  | Cc1ccc(Oc2ccc(Nc3ncnc4sc5c(c34)CCN(C(=O)/C=C/CN3CCC(O)C(C)(C)C3)C5)cc2C)cn1 (stereo not shown) [Compound 114] | < 100 |  | 
16 | < 100 |  | < 100 |  |  | Cc1ccc(Oc2ccc(Nc3ncnc4sc5c(c34)CCN(C(=O)/C=C/CN3CC4CC4(CO)C3)C5)cc2C)cn1 (stereo not shown) [Compound 118] | < 100 |  | 
17 | < 100 |  | < 100 |  |  | Cc1ccc(Oc2ccc(Nc3ncnc4sc5c(c34)CCN(C(=O)/C=C/CN3CC[C@H](F)C3)C5)cc2C)cn1 [Compound 124] | < 100 |  | 
18 |  | < 100 | 100 to 350 |  |  | Cc1ccc(Oc2ccc(Nc3ncnc4sc5c(c34)C(C)CN(C(=O)/C=C/CN3CCOCC3)C5)cc2C)cn1 (stereo not shown) [Compound 174, (E)-1-(5-Methyl-4-((3-methyl-4-((6-methylpyridin-3-yl)oxy)phenyl)amino)-5,6-dihydropyrido[4′,3′:4,5]thieno[2,3-d]pyrimidin-7(8H)-yl)-4-morpholinobut-2-en-1-one] | < 100 |  | 
